Laboratory results as given in EP3807270B1, “NOVEL HETEROARYL HETEROCYCLYL COMPOUNDS FOR THE TREATMENT OF AUTOIMMUNE DISEASE” (F. Hoffmann-La Roche AG, priority 2018, dated 2019).

How the values were obtained:
hTLR9 = biological target: T1, hTLR9 (Homo sapiens, UniProt Q9NR96); experiment: HEK293-Blue-hTLR-9 cells assay (SEAP reporter, ODN2006 stimulation); type: cell-based; design: host or cells: HEK293 (HEK-Blue); conditions: HEK293-Blue-hTLR9 cells, ODN2006, 20 hrs; read-out: HEK/hTLR9 IC50
T1 sequence (Q9NR96 26-1032): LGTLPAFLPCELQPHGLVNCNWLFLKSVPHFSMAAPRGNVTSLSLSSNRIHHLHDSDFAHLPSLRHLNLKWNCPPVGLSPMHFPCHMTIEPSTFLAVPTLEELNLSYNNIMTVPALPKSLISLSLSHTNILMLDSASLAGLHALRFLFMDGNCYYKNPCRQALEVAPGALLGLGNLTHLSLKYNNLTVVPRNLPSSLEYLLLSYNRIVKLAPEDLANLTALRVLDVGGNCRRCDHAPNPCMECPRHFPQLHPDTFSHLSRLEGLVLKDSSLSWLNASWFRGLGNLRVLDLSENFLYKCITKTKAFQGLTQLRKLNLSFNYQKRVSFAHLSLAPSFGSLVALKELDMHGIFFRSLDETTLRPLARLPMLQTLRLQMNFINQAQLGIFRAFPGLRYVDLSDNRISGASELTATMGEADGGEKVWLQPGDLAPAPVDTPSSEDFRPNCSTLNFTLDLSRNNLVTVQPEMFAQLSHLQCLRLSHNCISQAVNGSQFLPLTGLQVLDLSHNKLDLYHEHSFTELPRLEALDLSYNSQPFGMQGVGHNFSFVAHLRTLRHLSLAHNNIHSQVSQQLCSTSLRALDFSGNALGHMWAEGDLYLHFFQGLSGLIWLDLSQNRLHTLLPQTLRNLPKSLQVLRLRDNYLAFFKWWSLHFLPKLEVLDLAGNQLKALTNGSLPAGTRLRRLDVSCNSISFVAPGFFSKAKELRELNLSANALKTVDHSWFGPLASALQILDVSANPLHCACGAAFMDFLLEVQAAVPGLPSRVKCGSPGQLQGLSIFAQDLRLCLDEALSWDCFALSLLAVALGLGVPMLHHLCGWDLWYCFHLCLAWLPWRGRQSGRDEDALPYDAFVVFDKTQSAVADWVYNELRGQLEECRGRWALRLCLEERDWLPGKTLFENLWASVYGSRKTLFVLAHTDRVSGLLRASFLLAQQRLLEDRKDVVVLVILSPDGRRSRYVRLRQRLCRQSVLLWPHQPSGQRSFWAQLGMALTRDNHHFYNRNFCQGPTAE
In short: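 HEK293-Blue-hTLR9 cells (250,000-450,000 cells/mL) in DMEM with 10% FBS were treated with serially diluted compound (1% DMSO final) plus ODN2006 for 20 hrs at 37 °C. Supernatant SEAP activity was measured with QUANTI-Blue substrate for 2 hrs at 37 °C, reading absorbance at 620-655 nm.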

CYP2D6 = biological target: T2, CYP2D6 (Homo sapiens, UniProt P10635); experiment: CYP inhibition assay in human liver microsome; type: in vitro ADME; conditions: human liver microsomes, probe dextromethorphan, 10µM test compound, dextromethorphan substrate, <0: not or weak inhibitor, read-out: CYP 2D6 inhibition %@10µM
T2 construct: tissue BD-Gentest 452117; host or cells: human liver microsomes
T2 sequence (P10635 whole entry): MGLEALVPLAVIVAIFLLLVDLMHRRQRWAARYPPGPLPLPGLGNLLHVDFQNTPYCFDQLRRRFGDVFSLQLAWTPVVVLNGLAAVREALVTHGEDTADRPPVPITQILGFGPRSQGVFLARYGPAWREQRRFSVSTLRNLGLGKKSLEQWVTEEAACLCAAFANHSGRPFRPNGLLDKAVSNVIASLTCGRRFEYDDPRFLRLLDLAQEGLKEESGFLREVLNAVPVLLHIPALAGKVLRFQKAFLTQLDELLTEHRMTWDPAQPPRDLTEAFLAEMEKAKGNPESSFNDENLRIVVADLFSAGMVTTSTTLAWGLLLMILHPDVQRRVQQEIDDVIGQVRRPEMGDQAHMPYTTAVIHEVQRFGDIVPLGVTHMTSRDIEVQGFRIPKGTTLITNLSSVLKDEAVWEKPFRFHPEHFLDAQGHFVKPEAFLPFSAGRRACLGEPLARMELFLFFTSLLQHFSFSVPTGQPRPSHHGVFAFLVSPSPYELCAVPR
In short: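 HLM mixed with CYP2D6 substrate, preincubated 10 min at 37 °C, started with NADPH regenerating system and run 10 min at 37 °C before acetonitrile quench. Metabolite measured by RapidFire MS/MS against D3-dextrorphan internal standard. % inhibition scaled between DMSO and concentrated-inhibitor controls.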

IC50 (hTLR9) [nM]	inhibition at 10 min, 10 µM (CYP2D6) [%]	SMILES
84	6	C[C@@H]1CN(c2ccc(C#N)c3ncccc23)C[C@H](CN2CCN(c3cnc4c(c3)CN[C@@H]4C)CC2)O1 (single isomer, unassigned) [Example 68]
72	-5.5	C[C@@H]1CN(c2ccc(C#N)c3ncccc23)C[C@H](CN2CCN(c3cc4c(cn3)CCNC4)CC2)O1 [Example 20, 5-[(2R,6S)-2-methyl-6-[[4-(5,6,7,8-tetrahydro-2,6-naphthyridin-3-yl)piperazin-1-yl]methyl]morpholin-4-yl]quinoline-8-carbonitrile]
99	17.5	C[C@@H]1CN(c2ccc(C#N)c3ncccc23)C[C@H](CN2CCC(Nc3ncc4c(n3)CNC4)C2)O1 (stereo partly drawn) [Example 32, 5-[(2S,6R)-2-[[3-(6,7-dihydro-5H-pyrrolo[3,4-d]pyrimidin-2-ylamino)pyrrolidin-1-yl]methyl]-6-methyl-morpholin-4-yl]quinoline-8-carbonitrile]
< 32	10.5	C[C@@H]1CN(c2ccc(C#N)c3ncccc23)C[C@H](CN2C[C@H]3CN(c4ccc5c(n4)CCNC5)CC[C@H]32)O1 (single isomer, unassigned) [Example 55]
63	7.5	C[C@@H]1CN(c2ccc(C#N)c3ncccc23)C[C@H](CN2CCN(c3cc4c(cn3)CNCC4)CC2)O1 [Example 19, 5-[(2R,6S)-2-methyl-6-[[4-(5,6,7,8-tetrahydro-2,7-naphthyridin-3-yl)piperazin-1-yl]methyl]morpholin-4-yl]quinoline-8-carbonitrile]
69	10.5	C[C@@H]1CN(c2ccc(C#N)c3ncccc23)C[C@H](CN2CC3(C2)CN(c2cnc4c(n2)CCNC4)CCO3)O1 [Example 50, 5-[(2R,6S)-2-methyl-6-[[8-(5,6,7,8-tetrahydropyrido[3,4-b]pyrazin-2-yl)-5-oxa-2,8-diazaspiro [3.5]nonan-2-yl]methyl]morpholin-4-yl] quinoline-8-carbonitrile]
122	16.5	C[C@@H]1CN(c2ccc(C#N)c3ncccc23)C[C@H](CN2CCN(c3ncc4c(n3)CCNC4)CC2)O1 [Example 29, 5-[(2R,6S)-2-methyl-6-[[4-(5,6,7,8-tetrahydropyrido[4,3-d]pyrimidin-2-yl)piperazin-1-yl]methyl]morpholin-4-yl]quinoline-8-carbonitrile]
100	7	C[C@@H]1CN(c2ccc(C#N)c3nccnc23)C[C@H](CN2CCN(c3cc4c(cn3)CCNC4)CC2)O1 [Example 80, 8-[(2R,6S)-2-methyl-6-[[4-(5,6,7,8-tetrahydro-2,6-naphthyridin-3-yl)piperazin-1-yl]methyl]morpholin-4-yl]quinoxaline-5-carbonitrile]
69	24	C[C@@H]1CN(c2ccc(C#N)c3ncccc23)C[C@H](CN2CC3[C@H](C2)OCCN3c2ccc3c(n2)CCNC3)O1 (stereo in doubt) [Example 53, cis-5-[(2R,6S)-2-methyl-6-[[4-(5,6,7,8-tetrahydro-1,6-naphthyridin-2-yl)-2,3,4a,5,7,7a-hexahydropyrrolo[3,4-b][1,4]oxazin-6-yl]methyl]morpholin-4-yl]quinoline-8-carbonitrile]
98	13	C[C@@H]1CN(c2ccc(C#N)c3ncccc23)C[C@H](CN2CCN(c3cc4c(cn3)CNC4)CC2)O1 [Example 18, 5-[(2S,6R)-2-[[4-(2,3-dihydro-1H-pyrrolo[3,4-c]pyridin-6-yl)piperazin-1-yl]methyl]-6-methyl-morpholin-4-yl] quinoline-8-carbonitrile]
52	-4.5	C[C@@H]1CN(c2ccc(C#N)c3ncccc23)C[C@H](CN2CCN(c3cnc4c(c3)CNCC4)CC2)O1 [Example 21, 5-[(2R,6S)-2-methyl-6-[[4-(5,6,7,8-tetrahydro-1,6-naphthyridin-3-yl)piperazin-1-yl]methyl]morpholin-4-yl]quinoline-8-carbonitrile]
113	9	C[C@@H]1CN(c2ccc(C#N)c3ncccc23)C[C@H](CN2CC3(C2)CN(c2ccc4c(n2)CNCC4)CCO3)O1 [Example 45, 5-[(2R,6S)-2-methyl-6-[[8-(5,6,7,8-tetrahydro-1,7-naphthyridin-2-yl)-5-oxa-2,8-diazaspiro[3.5]nonan-2-yl]methyl]morpholin-4-yl]quinoline-8-carbonitrile]
82	6	C[C@@H]1CN(c2ccc(C#N)c3ncccc23)C[C@H](CN2CCN(c3cc4c(cn3)[C@@H](C)NCC4)CC2)O1 (single isomer, unassigned) [Example 73]
86	4	C[C@@H]1CN(c2ccc(C#N)c3ncccc23)C[C@H](CN2CCN(c3ccc4c(n3)CCN(C)C4)CC2)O1 [Example 34, 5-[(2R,6S)-2-methyl-6-[[4-(6-methyl-7,8-dihydro-5H-1,6-naphthyridin-2-yl)piperazin-1-yl]methyl]morpholin-4-yl]quinoline-8-carbonitrile]
89	6	C[C@@H]1CN(c2ccc(C#N)c3ncccc23)C[C@H](CN2CCN(c3cc4c(cn3)CCN[C@@H]4C)CC2)O1 (single isomer, unassigned) [Example 74]
252	19	C[C@@H]1CN(c2ccc(C#N)c3ncccc23)C[C@H](CN2CCN(c3ncc4c(n3)CNC4)CC2)O1 [Example 11, 5-[(2S,6R)-2-[[4-(6,7-dihydro-5Hpyrrolo[3,4-d]pyrimidin-2-yl)piperazin-1-yl]methyl]-6-methyl-morpholin-4-yl]quinoline-8-carbonitrile]
64	0.5	C[C@@H]1CN(c2ccc(C#N)c3ncccc23)C[C@H](CN2CCN(c3ccc4c(c3)CCNC4)CC2)O1 [Example 5, 5-[(2R,6S)-2-methyl-6-[[4-(1,2,3,4-tetrahydroisoquinolin-6-yl)piperazin-1-yl]methyl]morpholin-4-yl]quinoline-8-carbonitrile]
92	13	COC1CNCc2ccc(N3CCN(C[C@H]4CN(c5ccc(C#N)c6ncccc56)C[C@@H](C)O4)CC3)cc21 (stereo partly drawn) [Example 58, 5-[(2S,6R)-2-[[4-(4-methoxy-1,2,3,4-tetrahydroisoquinolin-6-yl)piperazin-1-yl]methyl]-6-methyl-morpholin-4-yl]quinoline-8-carbonitrile]
44	5	C[C@@H]1CN(c2ccc(C#N)c3ncccc23)C[C@H](CN2C[C@@H]3[C@@H](C2)OCCN3c2cnc3c(c2)CCNC3)O1 [Example 52, 5-[(2S,6R)-2-[[(4aR,7aR)-4-(5,6,7,8-tetrahydro-1,7-naphthyridin-3-yl)-2,3,4a,5,7,7a-hexahydropyrrolo[3,4-b][1,4]oxazin-6-yl]methyl]-6-methylmorpholin-4-yl]quinoline-8-carbonitrile]
59	3.5	C[C@@H]1CN(c2ccc(C#N)c3ncccc23)C[C@H](CN2CCN(c3cnc4c(c3)CCNC4)CC2)O1 [Example 23, 5-[(2R,6S)-2-methyl-6-[[4-(5,6,7,8-tetrahydro-1,7-naphthyridin-3-yl)piperazin-1-yl]methyl]morpholin-4-yl]quinoline-8-carbonitrile]
